This assay in a line: Functional Dkk1-LRP5-TCF-Luciferase Assay in U2OS Cells (table columns: A=MAX FOLD Induction/DMSO CONTROL; B=fold induction @ 2.0 uM; C=fold induction @ 20.0 uM). It is filed as cell-based, Human. The conditions noted are these: Homo sapiens, U2OS; for fold induction at 2 µM: 2.0 uM compound; for fold induction at 20 µM: 20.0 uM compound. The essentials: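 U2OS cells co-transfected with 16×TCF-TK-firefly luciferase, TK-Renilla control, Wnt3a and Dkk1, then frozen; thawed cells (~5,000/well, ~5% FBS, phenol red-free RPMI) incubated ~20 h at 37° C. with compound (0.25% DMSO). Firefly luminescence (Bright-Glo) normalized to DMSO mean as fold induction.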

SMILES strings stand for the structures.

Regarding `c1ccc2cc(-c3cnc4c(c3)nc(-c3ccc5ccccc5c3)n4C3CCNCC3)ccc2c1` [2,6-di-2-naphthyl-3-piperidin-4-yl-3H-imidazo[4,5-b]pyridine], the fold induction at 2 µM was found to be 1.06.
On to `CCc1nc2c(-c3ccc4ccccc4c3)ccnc2n1C1CCNCC1` [2-ethyl-7-(2-naphthyl)-3-piperidin-4-yl-3H-imidazo[4,5-b]pyridine], for which the fold induction at 2 µM came to 1.39.
Consider `c1ccc2cc(-c3cnc4c(c3)nc(-c3ccnc5ccccc35)n4C3CCNCC3)ccc2c1` [4-[6-(2-naphthyl)-3-piperidin-4-yl-3H-imidazo[4,5-b]pyridin-2-yl]quinoline], for which the fold induction at 2 µM worked out at 1.81.
Still for that read-out and setting: in the case of `O=[N+]([O-])c1ccc(-c2nc3c(-c4ccc5ccccc5c4)ccnc3n2C2CCNCC2)cc1` [7-(2-naphthyl)-2-(4-nitrophenyl)-3-piperidin-4-yl-3H-imidazo[4,5-b]pyridine] it was 1.42; in that of `CCCc1nc2c(-c3ccc4ccccc4c3)ccnc2n1C1CCNCC1` [7-(2-naphthyl)-3-piperidin-4-yl-2-propyl-3H-imidazo[4,5-b]pyridine], 1.93; in that of `Clc1ccccc1-c1nc2c(-c3ccc4ccccc4c3)ccnc2n1C1CCNCC1` [2-(2-chlorophenyl)-7-(2-naphthyl)-3-piperidin-4-yl-3H-imidazo[4,5-b]pyridine], 1.36.
For the compound `Fc1cccc(F)c1-c1nc2c(-c3ccc4ccccc4c3)ccnc2n1C1CCNCC1` [2-(2,6-difluorophenyl)-7-(2-naphthyl)-3-piperidin-4-yl-3H-imidazo[4,5-b]pyridine], the fold induction at 2 µM amounted to 1.11.
Same read-out and setting: as for `CCCCc1nc2cc(-c3ccc4ccccc4c3)cnc2n1C1CCNCC1` [2-butyl-6-(2-naphthyl)-3-piperidin-4-yl-3H-imidazo[4,5-b]pyridine], the figure is 1.21.
`CC(C)NC(=O)N1CCC(n2c(=O)n(C)c3c(-c4ccc5ccccc5c4)ccnc32)CC1` [N-isopropyl-4-[1-methyl-7-(2-naphthyl)-2-oxo-1,2-dihydro-3H-imidazo[4,5-b]pyridin-3-yl]piperidine-1-carboxamide]: the fold induction at 2 µM came to 1.07 and the fold induction at 20 µM was 0.26.
In the case of `Cc1nc(-c2nc3c(-c4ccc5ccccc5c4)ccnc3n2C2CCNCC2)c[nH]1` [2-(2-methyl-1H-imidazol-4-yl)-7-(2-naphthyl)-3-piperidin-4-yl-3H-imidazo[4,5-b]pyridine], the fold induction at 2 µM came out at 1.04 and the fold induction at 20 µM worked out at 0.02.
For `c1ccc(-c2nc3c(-c4ccc5ccccc5c4)ccnc3n2C2CCNCC2)nc1` [7-(2-naphthyl)-3-piperidin-4-yl-2-pyridin-2-yl-3H-imidazo[4,5-b]pyridine], in that order: 1.12 and 0.02.
Turning to `Cc1ccc(-c2nc3cc(-c4ccc5ccccc5c4)cnc3n2C2CCNCC2)cc1` [2-(4-methylphenyl)-6-(2-naphthyl)-3-piperidin-4-yl-3H-imidazo[4,5-b]pyridine], the fold induction at 2 µM turned out to be 1.
For the compound `Cn1c(-c2nc3cc(-c4ccc5ccccc5c4)cnc3n2C2CCNCC2)cc2ccccc21` [2-(1-methyl-1H-indol-2-yl)-6-(2-naphthyl)-3-piperidin-4-yl-3H-imidazo[4,5-b]pyridine], the fold induction at 2 µM is 1.05.
For `c1coc(-c2nc3c(-c4ccc5ccccc5c4)ccnc3n2C2CCNCC2)c1` [2-(2-furyl)-7-(2-naphthyl)-3-piperidin-4-yl-3H-imidazo[4,5-b]pyridine], the fold induction at 2 µM is 1.82 and the fold induction at 20 µM is 0.01.
Turning to `Cn1cccc1-c1nc2c(-c3ccc4ccccc4c3)ccnc2n1C1CCNCC1` [2-(1-methyl-1H-pyrrol-2-yl)-7-(2-naphthyl)-3-piperidin-4-yl-3H-imidazo[4,5-b]pyridine], the fold induction at 2 µM stood at 1.52 and the fold induction at 20 µM was 0.01.
On to `c1ccc(-c2nc3cc(-c4ccc5ccccc5c4)cnc3n2C2CCNCC2)nc1` [6-(2-naphthyl)-3-piperidin-4-yl-2-pyridin-2-yl-3H-imidazo[4,5-b]pyridine], for which the fold induction at 2 µM worked out at 1.6 and the fold induction at 20 µM was determined as 0.005.
In the same order, the values of `CC(=O)N1CCC(n2c(=O)n(C)c3c(-c4ccc5ccccc5c4)ccnc32)CC1` [3-(1-acetylpiperidin-4-yl)-1-methyl-7-(2-naphthyl)-1,3-dihydro-2H-imidazo[4,5-b]pyridin-2-one] are 1.09 and 0.51.
Consider `FC(F)(F)Oc1ccc(-c2nc3c(-c4ccc5ccccc5c4)ccnc3n2C2CCNCC2)cc1` [7-(2-naphthyl)-3-piperidin-4-yl-2-[4-(trifluoromethoxy)phenyl]-3H-imidazo[4,5-b]pyridine], for which the fold induction at 2 µM is 1.51.
On to `c1ccc2cc(-c3cnc4c(c3)ncn4C3CCNCC3)ccc2c1` [6-(2-naphthyl)-3-piperidin-4-yl-3H-imidazo[4,5-b]pyridine], for which the fold induction at 2 µM was determined as 1.53.
Regarding `c1ccc(CN2CCC(n3cnc4c(-c5ccc6ccccc6c5)ccnc43)CC2)cc1` [3-(1-benzylpiperidin-4-yl)-7-(2-naphthyl)-3H-imidazo[4,5-b]pyridine], the fold induction at 2 µM came out at 0.84 and the fold induction at 20 µM came to 0.08.
Consider `COc1ccc2ccccc2c1-c1nc2c(-c3ccc4ccccc4c3)ccnc2n1C1CCNCC1` [2-(2-methoxy-1-naphthyl)-7-(2-naphthyl)-3-piperidin-4-yl-3H-imidazo[4,5-b]pyridine], for which the fold induction at 2 µM was found to be 1.17.
Consider `O=c1[nH]c2c(-c3ccc4ccccc4c3)ccnc2n1C1CCNCC1` [7-(2-naphthyl)-3-piperidin-4-yl-1,3-dihydro-2H-imidazo[4,5-b]pyridin-2-one], for which the fold induction at 2 µM was 1.29 and the fold induction at 20 µM is 0.04.
As to `Cn1ccnc1-c1nc2c(-c3ccc4ccccc4c3)ccnc2n1C1CCNCC1` [2-(1-methyl-1H-imidazol-2-yl)-7-(2-naphthyl)-3-piperidin-4-yl-3H-imidazo[4,5-b]pyridine], the fold induction at 2 µM stood at 1.84.
The same measure, in the same setting: as for `Fc1ccccc1-c1nc2cc(-c3ccc4ccccc4c3)cnc2n1C1CCNCC1` [2-(2-fluorophenyl)-6-(2-naphthyl)-3-piperidin-4-yl-3H-imidazo[4,5-b]pyridine], the figure is 1.29.
For the compound `c1csc(-c2nc3c(-c4ccc5ccccc5c4)ccnc3n2C2CCNCC2)c1` [7-(2-naphthyl)-3-piperidin-4-yl-2-(2-thienyl)-3H-imidazo[4,5-b]pyridine], the fold induction at 2 µM worked out at 1.22 and the fold induction at 20 µM stood at 0.04.
`c1ccc2cc(-c3ccnc4c3nc(-c3ccsc3)n4C3CCNCC3)ccc2c1` [7-(2-naphthyl)-3-piperidin-4-yl-2-(3-thienyl)-3H-imidazo[4,5-b]pyridine]: the fold induction at 2 µM was found to be 1.17 and the fold induction at 20 µM is 0.01.
In the case of `CN(C)S(=O)(=O)N1CCC(n2cnc3c(-c4ccc5ccccc5c4)ccnc32)CC1` [N,N-dimethyl-4-[7-(2-naphthyl)-3H-imidazo[4,5-b]pyridin-3-yl]piperidine-1-sulfonamide], the fold induction at 2 µM was found to be 1.19 and the fold induction at 20 µM stood at 1.46.
In the case of `Clc1ccc(-c2nc3c(-c4ccc5ccccc5c4)ccnc3n2C2CCNCC2)c(Cl)c1` [2-(2,4-dichlorophenyl)-7-(2-naphthyl)-3-piperidin-4-yl-3H-imidazo[4,5-b]pyridine], the fold induction at 2 µM stood at 1.1.
On to `Oc1ccc(-c2nc3c(-c4ccc5ccccc5c4)ccnc3n2C2CCNCC2)cc1` [4-[7-(2-naphthyl)-3-piperidin-4-yl-3H-imidazo[4,5-b]pyridin-2-yl]phenol], for which the fold induction at 2 µM was found to be 1.3.
For the compound `Cc1nc[nH]c1-c1nc2c(-c3ccc4ccccc4c3)ccnc2n1C1CCNCC1` [2-(4-methyl-1H-imidazol-5-yl)-7-(2-naphthyl)-3-piperidin-4-yl-3H-imidazo[4,5-b]pyridine], the fold induction at 2 µM amounted to 1.31.
For the compound `O=[N+]([O-])c1cc(-c2nc3c(-c4ccc5ccccc5c4)ccnc3n2C2CCNCC2)ccc1N1CCOCC1` [2-(4-morpholin-4-yl-3-nitrophenyl)-7-(2-naphthyl)-3-piperidin-4-yl-3H-imidazo[4,5-b]pyridine], the fold induction at 2 µM worked out at 1.44 and the fold induction at 20 µM came to 0.06.
In the case of `Oc1cccc(-c2nc3c(-c4ccc5ccccc5c4)ccnc3n2C2CCNCC2)c1O` [3-[7-(2-naphthyl)-3-piperidin-4-yl-3H-imidazo[4,5-b]pyridin-2-yl]benzene-1,2-diol], the fold induction at 2 µM amounted to 1.33.
Regarding `CCc1nc2cc(-c3ccc4ccccc4c3)cnc2n1C1CCNCC1` [2-ethyl-6-(2-naphthyl)-3-piperidin-4-yl-3H-imidazo[4,5-b]pyridine], the fold induction at 2 µM was 1.27 and the fold induction at 20 µM came to 0.78.
As to `c1ccc2cc(-c3ccnc4c3nc(C3CCCCC3)n4C3CCNCC3)ccc2c1` [2-cyclohexyl-7-(2-naphthyl)-3-piperidin-4-yl-3H-imidazo[4,5-b]pyridine], the fold induction at 2 µM was 1.88.
The same measure, in the same setting: as for `Clc1ccc(-c2nc3c(-c4ccc5ccccc5c4)ccnc3n2C2CCNCC2)cc1` [2-(4-chlorophenyl)-7-(2-naphthyl)-3-piperidin-4-yl-3H-imidazo[4,5-b]pyridine], the figure is 1.21; as for `CC(C)Cc1nc2c(-c3ccc4ccccc4c3)ccnc2n1C1CCNCC1` [2-isobutyl-7-(2-naphthyl)-3-piperidin-4-yl-3H-imidazo[4,5-b]pyridine], 1.05; as for `c1ccc2cc(-c3ccnc4c3nc(-c3cccc5ccccc35)n4C3CCNCC3)ccc2c1` [2-(1-naphthyl)-7-(2-naphthyl)-3-piperidin-4-yl-3H-imidazo[4,5-b]pyridine], 1.39.
For `Cn1cc(-c2nc3cc(-c4ccc5ccccc5c4)cnc3n2C2CCNCC2)c2ccccc21` [2-(1-methyl-1H-indol-3-yl)-6-(2-naphthyl)-3-piperidin-4-yl-3H-imidazo[4,5-b]pyridine], the fold induction at 2 µM amounted to 1.04.

In general, fold induction refers to the signal under treatment as a multiple of the control signal.
